Results taken from ChEMBL document CHEMBL4219074, “Borrelidins F-I, cytotoxic and cell migration inhibiting agents from mangrove-derived Streptomyces rochei SCSIO ZJ89” (Bioorg Med Chem, 2018).
Activity calls are given as the source filed them. No cut-off for these calls is given here.

Legend:
[1] = tested on: CNE-2; experiment: Cytotoxicity against human CNE2 cells by CCK8 assay; type: functional, cell-based
[2] = tested on: MCF7; experiment: Cytotoxicity against human MCF7 cells by CCK8 assay; type: functional, cell-based
[3] = tested on: HepG2; experiment: Cytotoxicity against human HepG2 cells by CCK8 assay; type: functional, cell-based
[4] = Cytotoxicity against HUVEC12 cells by CCK8 assay; type: cell-based; conditions: Homo sapiens
[5] = tested on: L02; experiment: Cytotoxicity against human L02 cells by CCK8 assay; type: cell-based
[6] = tested on: A549; experiment: Cytotoxicity against human A549 cells by CCK8 assay; type: functional, cell-based
[7] = tested on: HeLa; experiment: Cytotoxicity against human HeLa cells by CCK8 assay; type: functional, cell-based
[8] = tested on: HeLa; experiment: Inhibition of serum-induced cell migration in human HeLa cells at 0.5 to 2 times IC50 measured up to 17 hrs by wound healing assay; type: functional, cell-based
[9] = tested on: A549; experiment: Inhibition of serum-induced cell migration in human A549 cells at 0.5 to 2 times IC50 measured up to 46 hrs by wound healing assay; type: functional, cell-based
[10] = Inhibition of serum-induced cell migration in HUVEC12 cells at 0.5 to 2 times IC50 measured up to 17 hrs by wound healing assay; type: cell-based; conditions: human

Molecule `C[C@@H]1C[C@H](C)C[C@H](C)[C@@H](O)CC(=O)O[C@@H]([C@@H]2CCC[C@H]2C(=O)O)C/C=C/C=C(/C#N)[C@@H](O)[C@@H](C)C1` has an IC50 [1] of 9.35 µM, an IC50 [2] of 1.21 µM and an IC50 [3] of 14.6 µM. It also gave an IC50 [4] of 12 µM, an IC50 [5] of 8.73 µM and an IC50 [6] of 9.2 µM. It also gave an IC50 [7] of 11.6 µM.

In the case of `CC(=O)NC/C1=C/C=C/C[C@H]([C@@H]2CCC[C@H]2C(=O)O)OC(=O)C[C@H](O)[C@@H](C)C[C@@H](C)C[C@@H](C)C[C@H](C)[C@@H]1O`, the IC50 [1] is reported as greater than 50 µM, the IC50 [2] is reported as greater than 50 µM and the inhibition [8] is reported as “inactive”. The IC50 [3] was greater than 50 µM, the IC50 [4] was greater than 50 µM and the IC50 [5] was greater than 50 µM. The IC50 [6] was greater than 50 µM, the IC50 [7] was greater than 50 µM and the inhibition [9] was “inactive”.

With `COc1cccc2c1C(=O)c1c(O)c3c(c(O)c1C2=O)C[C@@](O)(C(=O)CO)C[C@@H]3O[C@H]1C[C@H](N)[C@H](O)[C@H](C)O1` [DOXORUBICIN] the IC50 [1] was 3.52 µM, the IC50 [3] was 1.13 µM and the IC50 [4] was 34.2 µM. It also gave an IC50 [5] of 13.2 µM and an IC50 [6] of 3.41 µM.

In the case of `C[C@@H]1C[C@H](C)C[C@H](C)[C@@H](O)CC(=O)O[C@@H]([C@@H]2CCC[C@H]2C(=O)O)C/C=C\C=C(/C#N)[C@@H](O)[C@@H](C)C1`, the IC50 [1] is reported as 1.27 µM, the IC50 [2] is reported as 0.12 µM and the Activity [10] is reported as “Non-Toxic”. For the same molecule, the inhibition [8] was “Active”, the IC50 [3] was 2.05 µM and the IC50 [4] was 6.13 µM. For the same molecule, the IC50 [5] was 7.26 µM, the IC50 [6] was 1.22 µM and the IC50 [7] was 1.28 µM. The inhibition [9] was “Active”.

Work on `C[C@@H]1C[C@H](C)C[C@H](C)[C@@H](O)CC(=O)O[C@@H]([C@@H]2CCC[C@H]2C(=O)O)C/C=C\C=C(/C#N)[C@H](O)[C@@H](C)C1` yielded an IC50 [1] of 14.4 µM, an IC50 [2] of 1.15 µM and an IC50 [3] of 17.5 µM. It also gave an IC50 [4] of 14.3 µM, an IC50 [5] of 22.8 µM and an IC50 [6] of 15.2 µM. The IC50 [7] was 15.1 µM.

With `C[C@@H]1C[C@H](C)C[C@H](C)[C@@H](O)CC(=O)O[C@@H]([C@@H]2CCC[C@H]2C(=O)O)C/C=C/C=C(/C#N)[C@H](O)[C@@H](C)C1` the IC50 [1] was 1.55 µM, the IC50 [2] was 0.12 µM and the IC50 [3] was 2.19 µM. It also gave an IC50 [4] of 1.44 µM, an IC50 [5] of 0.98 µM and an IC50 [6] of 1.69 µM. For the same molecule, the IC50 [7] was 2.19 µM.
